Results reported in patent US5135932A, “2-hydroxypropylamino-alkyl-benzimidazoly-5-yl derivatives and their use in the treatment of heart disease” (Dr. Karl Thomae GmbH, priority 1989, dated 1992).

Tests used:
[1] = molecular target: T1, β1 adreno receptor (rat hearts) (Rattus norvegicus, UniProt P18090); experiment: Affinity for β-adreno receptors: inhibition of 3H-CGP 12177 binding, receptor preparations from rat hearts (β1); conditions: 200 pM 3H-CGP 12177
T1 construct: receptor preparations from rat hearts (β1); from tissue; host or cells: rat heart membrane preparation
Protocol: (§1) 1. Affinity for β-adreno recectors
(§2) The inhibitory effect on the binding of ^3 H-CGP 12177 was tested on receptor preparations from rat hearts (β1) and rat lungs (β2). The binding assay was carried out with some modifications according to the method of Dammgen et al. (Drug. Res. 35: 383-390 (1985)). The incubation mixture contained aliquots of the membrane preparation in Tris buffer, increasing concentrations of the potential antagonist as well as 200 pM ^3 H-CGP 12177. The bound and free radioligands were separated after the incubation period by rapid filtration through glass fibre filters. The filter-bound radioactivity was determined in a β counter with a counting yield of about 52%. The non-specific binding was determined in the presence of 10^-5 M propranolol.

[2] = molecular target: T2, β2 adreno receptor (rat lungs) (Rattus norvegicus, UniProt P10608); experiment: Affinity for β-adreno receptors: inhibition of 3H-CGP 12177 binding, receptor preparations from rat lungs (β2); conditions: 200 pM 3H-CGP 12177
T2 construct: rat lungs (β2); from tissue; host or cells: rat lung membrane preparation
Protocol: as §1, §2

[3] = tested on: Guinea-pigs (Dunkin-Hartley-Pirbright, male); experiment: Cardiotonic effect: LV-dP/dtmax and heart rate in anaesthetised guinea-pigs; format: in vivo, guinea-pig; conditions: after a dose of 3 mg/kg i.v., averages from 2 to 3 tests; for change in vivo at 3 mg/kg: Cavia porcellus, iv, read-out: Effects on LV-dP/dtmax % increase
Protocol: (§3) Cardiotonic effect with antiadrenergic activity
(§4) Guinea-pigs (Dunkin-Hartley-Pirbright, male, 450-600 g) were anaesthetised with hexobarbital-sodium (150 mg/kg i.p.). After the animals had become unconscious, a tracheal cannula was inserted and the animals were pitched (van Meel, J. Pharmacol. Methods 31 (1): 1-11 (1985)). The animals were then immediately artificially respirated using a breathing pump. The left ventricular pressure (LVP) was measured with a Millar PR-249 catheter-tip manometer inserted into the left ventricle through the left carotid artery. This pressure signal was differentiated electronically (LV-dP/dtmax) and used as a parameter for inotropia. The arterial blood pressure was recorded by a cannula in the right carotid artery using a Bell & Howell pressure recorder. The heart rate was also measured. The substances were administered through a cannula in the jugular vein.
(§5) The test substances were administered to three animals cumulatively in four doses (0.1 to 3 mg/kg) and the effects on blood pressure, heart rate and LV-dP/dtmax were measured. Three minutes after the last dose of the test substance, isoprenalin was administered intravenously in increasing doses. In this way, a cumulative dose-activity correlation was obtained for isoprenalin in the presence of the test substance. The parameters measured were the increase in heart rate and the LV-dP/dtmax. These dose-activity curves were compared with standard curves for isoprenalin without the test substances. The shift to the right of the dose-activity curves for isoprenalin brought about by the test substances were determined graphically and corresponding pA2 values for the test substances were calculated. (see Tenakin in "Pharmacologic Analysis of Drug Receptor Interaction", Rawen Press 1987, pages 211-212).
(§6) The Table which follows contains the averages from 2 to 3 tests: […]

[4] = Antiadrenergic activity: shift of isoprenalin dose-activity curves in guinea-pigs (pA2); format: in vivo, guinea-pig; conditions: averages from 2 to 3 tests; for pA2 heart rate: against heart rate-increasing activity of isoprenalin; for pA2 inotropia: against inotropic activity of isoprenalin (LV-dP/dtmax)
Protocol: as §3, §4, §5, §6

T1 sequence (P18090 whole entry): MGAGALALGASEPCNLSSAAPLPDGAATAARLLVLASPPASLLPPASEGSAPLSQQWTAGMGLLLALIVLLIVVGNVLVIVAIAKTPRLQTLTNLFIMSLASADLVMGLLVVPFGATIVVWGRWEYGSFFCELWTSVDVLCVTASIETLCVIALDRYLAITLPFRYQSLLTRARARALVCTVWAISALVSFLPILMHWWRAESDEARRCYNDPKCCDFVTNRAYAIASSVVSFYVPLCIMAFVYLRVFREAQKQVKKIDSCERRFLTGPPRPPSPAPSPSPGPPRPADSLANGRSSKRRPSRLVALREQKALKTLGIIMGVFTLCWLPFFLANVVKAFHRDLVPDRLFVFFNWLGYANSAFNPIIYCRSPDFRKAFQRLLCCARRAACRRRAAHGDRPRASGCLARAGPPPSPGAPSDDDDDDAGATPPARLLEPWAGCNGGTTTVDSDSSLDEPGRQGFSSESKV
T2 sequence (P10608 whole entry): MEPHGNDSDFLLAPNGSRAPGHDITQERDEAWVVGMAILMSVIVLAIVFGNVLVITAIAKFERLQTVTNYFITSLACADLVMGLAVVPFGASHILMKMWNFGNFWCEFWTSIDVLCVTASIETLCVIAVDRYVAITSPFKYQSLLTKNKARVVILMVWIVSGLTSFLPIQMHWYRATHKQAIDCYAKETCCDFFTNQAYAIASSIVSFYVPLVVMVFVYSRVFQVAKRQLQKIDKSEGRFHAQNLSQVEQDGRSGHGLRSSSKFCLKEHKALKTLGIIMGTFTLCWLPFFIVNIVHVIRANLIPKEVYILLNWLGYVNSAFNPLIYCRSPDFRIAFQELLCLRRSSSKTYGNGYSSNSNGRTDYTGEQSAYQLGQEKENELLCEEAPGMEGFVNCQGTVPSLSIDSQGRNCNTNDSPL

O=C1CCC(c2ccc3c(c2)ncn3CCNCC(O)COc2ccc(CCOCC3CCC3)cc2)=NN1 (centres unmarked) [Substance A, 6-[1-[2-[3-(4-(2-cyclobutylmethoxy-ethyl)phenoxy)-2-hydroxy-propylamino]ethyl]benzimidazol-5-yl]-4,5-dihydro-3(2H)-pyridazinone]
IC50 [1]: 0.026 µM
IC50 [2]: 0.94 µM
change in vivo at 3 mg/kg [3]: 50%
Effect on heart rate in beats per minute [3]: -23 beats per minute
pA2 heart rate [4]: 8.20
pA2 inotropia [4]: 6.30

O=C1CCC(c2ccc3c(c2)ncn3CCNCC(O)COc2ccc(CCOCC3CC3)cc2)=NN1 (centres unmarked) [Substance B, 6-[1-[2-[3-(4-(2-cyclopropylmethoxy-ethyl)phenoxy)-2-hydroxy-propylamino]ethyl]benzimidazol-5-yl]-4,5-dihydro-3(2H)-pyridazinone]
IC50 [1]: 0.034 µM
IC50 [2]: 2.3 µM
change in vivo at 3 mg/kg [3]: 51%
Effect on heart rate in beats per minute [3]: -47 beats per minute
pA2 heart rate [4]: 6.95
pA2 inotropia [4]: 6.83

O=C1CCC(c2ccc(OCCNCC(O)COc3ccc(CCOCC4CC4)cc3)cc2)=NN1 (centres unmarked) [Substance C, 6-[4-[2-[3-(4-(2-cyclopropylmethoxy-ethyl)phenoxy)-2-hydroxy-propylamino]ethoxy]phenyl]-4,5-dihydro-3(2H)-pyridazinone]
IC50 [1]: 0.029 µM
IC50 [2]: 1.2 µM
change in vivo at 3 mg/kg [3]: 25%
Effect on heart rate in beats per minute [3]: -51 beats per minute
pA2 heart rate [4]: 7.22
pA2 inotropia [4]: 6.76

O=c1ccc(-c2ccc(OCCNCC(O)COc3ccc(CCOCC4CC4)cc3)cc2)n[nH]1 (centres unmarked) [Substance D, 6-[4-[2-[3-(4-(2-cyclopropylmethoxyethyl)phenoxy)-2-hydroxy-propylamino]ethoxy]phenyl]-3(2H)-pyridazinone]
IC50 [1]: 0.022 µM
IC50 [2]: 1 µM
change in vivo at 3 mg/kg [3]: 51%
Effect on heart rate in beats per minute [3]: -49 beats per minute
pA2 heart rate [4]: 7.24
pA2 inotropia [4]: 6.67

O=C1CCC(c2ccc(OCCNCC(O)COc3ccc(CCOCC4CCC4)cc3)cc2)=NN1 (centres unmarked) [Substance E, 6-[4-[2-[3-(4-(2-cyclobutylmethoxy-ethyl)phenoxy)-2-hydroxy-propylamino]ethoxy]phenyl]-4,5-dihydro-3(2H)-pyridazinone]
IC50 [1]: 0.015 µM
IC50 [2]: 1.1 µM
change in vivo at 3 mg/kg [3]: 49%
Effect on heart rate in beats per minute [3]: -71 beats per minute
pA2 heart rate [4]: 7.23
pA2 inotropia [4]: 6.19

CC(C)OCCOCc1ccc(OCC(O)CNCCOc2ccc(C3=NNC(=O)CC3)cc2)cc1 (centres unmarked) [Substance F, 6-[4-[2-[3-(4-((2-isopropoxyethoxy)methyl)phenoxy)-2-hydroxy-propylamino]ethoxy]phenyl]-4,5-dihydro-3(2H)-pyridazinone]
IC50 [1]: 0.024 µM
IC50 [2]: 7.2 µM
change in vivo at 3 mg/kg [3]: 37%
Effect on heart rate in beats per minute [3]: -94 beats per minute
pA2 heart rate [4]: 6.96
pA2 inotropia [4]: 7.14

CC(C)OCCOCc1ccc(OCC(O)CNCCOc2ccc(-c3ccc(=O)[nH]n3)cc2)cc1 (centres unmarked) [Substance G, 6-[4-[2-[3-(4-(2-isopropoxyethoxymethyl)phenoxy)-2-hydroxypropylamino]ethoxy]phenyl]-3(2H)-pyridazinone]
IC50 [1]: 0.053 µM
IC50 [2]: 4.4 µM
change in vivo at 3 mg/kg [3]: 38%
Effect on heart rate in beats per minute [3]: -36 beats per minute
pA2 heart rate [4]: 6.38
pA2 inotropia [4]: 6.32

CC(C)COCCc1ccc(OCC(O)CNCCCn2cnc3cc(C4=NNC(=O)CC4)ccc32)cc1 (centres unmarked) [Substance H]
IC50 [1]: 0.01 µM
IC50 [2]: 0.019 µM
change in vivo at 3 mg/kg [3]: 10%
Effect on heart rate in beats per minute [3]: -90 beats per minute
pA2 heart rate [4]: > 9.0
pA2 inotropia [4]: 8.28

CC(C)COCCc1ccc(OCC(O)CNC(C)(C)Cn2cnc3cc(C4=NNC(=O)CC4)ccc32)cc1 (centres unmarked) [Substance I, 6-[1-[2-[3-(4-(2-isobutoxyethyl)phenoxy)-2-hydroxypropylamino]-2,2-dimethyl-ethyl]benzimidazol-5-yl]-4,5-dihydro-3(2H)-pyridazinone]
IC50 [1]: 0.012 µM
IC50 [2]: 0.065 µM
change in vivo at 3 mg/kg [3]: 58%
Effect on heart rate in beats per minute [3]: -59 beats per minute
pA2 heart rate [4]: 7.89
pA2 inotropia [4]: 7.17

CC(C)OCCOCc1ccc(OCC(O)CNCCCOc2ccc(C3=NNC(=O)CC3)cc2Cl)cc1 (centres unmarked) [Substance K, 6-[4-[3-[3-(4-(2-isopropoxyethoxy-methyl)phenoxy)-2-hydroxy-propylamino]propoxy]-3-chloro-phenyl]-4,5-dihydro-3(2H)-pyridazinone]
IC50 [1]: 0.01 µM
IC50 [2]: 0.35 µM
change in vivo at 3 mg/kg [3]: 11%
Effect on heart rate in beats per minute [3]: -121 beats per minute
pA2 heart rate [4]: 7.52
pA2 inotropia [4]: 6.56

CC(C)OCCOCc1ccc(OCC(O)CNCCOc2ccc(C3=NNC(=O)CC3)cc2Cl)cc1 (centres unmarked) [Substance L, 6-[4-[2-[3-(4-(2-isopropoxyethoxy-methyl)phenoxy)-2-hydroxy-propylamino]ethoxy]-3-chloro-phenyl]-4,5-dihydro-3(2H)-pyridazinone]
IC50 [1]: 0.0076 µM
IC50 [2]: 0.6 µM
change in vivo at 3 mg/kg [3]: 66%
Effect on heart rate in beats per minute [3]: -51 beats per minute
pA2 heart rate [4]: 6.77
pA2 inotropia [4]: 6.23

Cc1cc(C2=NNC(=O)CC2)ccc1OCCNCC(O)COc1ccc(CCOCC2CC2)cc1 (centres unmarked) [Substance M, 6-[4-[2-[3-(4-(2-cyclopropylmethoxy-ethyl)phenoxy)-2-hydroxy-propylamino]ethoxy]-3-methyl-phenyl]-4,5-dihydro-3(2H)-pyridazinone]
IC50 [1]: 0.0005 µM
IC50 [2]: 0.1 µM
change in vivo at 3 mg/kg [3]: 51%
Effect on heart rate in beats per minute [3]: -64 beats per minute
pA2 heart rate [4]: 8.20
pA2 inotropia [4]: 7.05

Cc1cc(C2=NNC(=O)CC2)ccc1OCCNCC(O)COc1ccc(COCCOC(C)C)cc1 (centres unmarked) [Substance N, 6-[4-[2-[3-(4-(2-isopropoxyethoxy-methyl)phenoxy)-2-hydroxy-propylamino]ethoxy]-3-methyl-phenyl]-4,5-dihydro-3(2H)-pyridazinone]
IC50 [1]: 0.0026 µM
IC50 [2]: 0.52 µM
change in vivo at 3 mg/kg [3]: 34%
Effect on heart rate in beats per minute [3]: -94 beats per minute
pA2 heart rate [4]: 8.34
pA2 inotropia [4]: 7.34

Cc1cc(C2=NNC(=O)CC2)ccc1OCCCNCC(O)COc1ccc(CCOCC2CC2)cc1 (centres unmarked) [Substance O, 6-[4-[3-[3-(4-(2-cyclopropylmethoxy-ethyl)phenoxy)-2-hydroxy-propylamino]propoxy]-3-methyl-phenyl]-4,5-dihydro-3(2H)-pyridazinone]
IC50 [1]: 0.059 µM
IC50 [2]: 0.066 µM
change in vivo at 3 mg/kg [3]: 38%
Effect on heart rate in beats per minute [3]: -116 beats per minute
pA2 heart rate [4]: 7.70
pA2 inotropia [4]: 6.44

Cc1cc(C2=NNC(=O)CC2)ccc1OCCCNCC(O)COc1ccc(CCOCC2CCC2)cc1 (centres unmarked) [Substance P, 6-[4-[3-[3-(4-(2-cyclobutylmethoxy-ethyl)phenoxy)-2-hydroxy-propylamino]propoxy]-3-methyl-phenyl]-4,5-dihydro-3(2H)-pyridazinone]
IC50 [1]: 0.006 µM
IC50 [2]: 0.22 µM
change in vivo at 3 mg/kg [3]: 69%
Effect on heart rate in beats per minute [3]: -61 beats per minute
pA2 heart rate [4]: 6.45
pA2 inotropia [4]: 5.31

Cc1cc(-c2ccc(=O)[nH]n2)ccc1OCCNCC(O)COc1ccc(COCCOC(C)C)cc1 (centres unmarked) [Substance Q, 6-[4-[2-[3-(4-(2-isopropoxyethoxy-methyl)phenoxy)-2-hydroxy-propylamino]ethoxy]-3-methyl-phenyl]-3(2H)-pyridazinone]
IC50 [1]: 0.002 µM
IC50 [2]: 0.21 µM
